Compound: Cc1nc(C(=O)NCC(=O)O)c(O)c2ccc(Oc3ccccc3)cc12 [FG-4592] + N=C(N)NC(=N)NCCc1ccccc1 [Phenformin] (partner 250 µM)
Experiment: relative viability (nuclei count vs DMSO), 5 days (fraction); higher = more cells survive
Settings: first compound 8 µM
Outline: (§1)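 Relative viability is defined as nuclei in treated wells over nuclei in vehicle wells. Duplicate plates were run and medians reported. Lung cancer cell lines in 1536-well plates were dosed by pin tool one day after seeding, with one drug or with a fixed anchor-drug dose plus five library-drug doses (not always all listed) in √10 steps, and nuclei were counted after 5 days.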

Cell Line | relative viability
NCI-H3122 | 0.385
NCI-H1437 | 0.31
NCI-H1755 | 0.627

Compound: CC1=CC(=C(N1C2=CC=C(C=C2)Cl)C)C(=O)CN3CCCCC3 [IU1-47] + CC(=O)c1c(C)c2cnc(Nc3ccc(N4CCNCC4)cn3)nc2n(C2CCCC2)c1=O [Palbociclib] (partner 0.5 µM)
Experiment: as above
Settings: first compound 0.08 µM
Outline: as §1

Cell Line | relative viability
NCI-H2405 | 0.539
HOP-62 | 0.515
HCC-44 | 1.02
SW 900 | 0.53
LU99A | 0.373
BEN | 0.54
HARA | 0.231
HCC-78 | 0.474
NCI-H322M | 0.489
LCLC-97TM1 | 0.281
NCI-H2009 | 0.225
A-427 | 0.488
NCI-H441 | 0.265
NCI-H661 | 0.433
NCI-H1734 | 0.353
NCI-H460 | 0.24
NCI-H2347 | 0.39

Cell Line | relative viability
SK-LU-1 | 0.387
NCI-H1395 | 0.58
201T | 0.377
NCI-H1915 | 0.561
HCC-827 | 0.553
LXF-289 | 0.634
NCI-H23 | 0.532
NCI-H647 | 0.38
CAL-12T | 0.402
NCI-H1651 | 0.525
EPLC-272H | 0.315
NCI-H2228 | 0.715
NCI-H1792 | 0.727
NCI-H1355 | 0.422
NCI-H3122 | 0.186
NCI-H1437 | 0.284
NCI-H1755 | 0.44

Same assay, conditions: first compound 0.253 µM

Cell Line | relative viability
NCI-H2405 | 0.593
HOP-62 | 0.524
HCC-44 | 0.95
LU99A | 0.43
BEN | 0.452
HARA | 0.316
HCC-78 | 0.441
NCI-H322M | 0.551
LCLC-97TM1 | 0.229
NCI-H2009 | 0.229
A-427 | 0.521
NCI-H441 | 0.243
NCI-H661 | 0.425
NCI-H1734 | 0.355
NCI-H460 | 0.123
NCI-H2347 | 0.474

Cell Line | relative viability
SK-LU-1 | 0.411
NCI-H1395 | 0.569
201T | 0.417
NCI-H1915 | 0.513
HCC-827 | 0.497
LXF-289 | 0.679
NCI-H647 | 0.416
CAL-12T | 0.306
NCI-H1651 | 0.539
EPLC-272H | 0.338
NCI-H2228 | 0.807
NCI-H1792 | 0.643
NCI-H1355 | 0.414
NCI-H3122 | 0.189
NCI-H1437 | 0.281
NCI-H1755 | 0.518

Same assay, conditions: first compound 0.8 µM

Cell Line | relative viability
NCI-H2405 | 0.531
HOP-62 | 0.483
HCC-44 | 0.996
SW 900 | 0.564
LU99A | 0.399
BEN | 0.448
HARA | 0.239
HCC-78 | 0.5
NCI-H322M | 0.487
LCLC-97TM1 | 0.218
NCI-H2009 | 0.208
A-427 | 0.536
NCI-H441 | 0.206
NCI-H661 | 0.44
NCI-H1734 | 0.314
NCI-H460 | 0.16
NCI-H2347 | 0.436

Cell Line | relative viability
SK-LU-1 | 0.445
NCI-H1395 | 0.631
201T | 0.361
NCI-H1915 | 0.539
HCC-827 | 0.534
LXF-289 | 0.603
NCI-H23 | 0.431
NCI-H647 | 0.416
CAL-12T | 0.413
NCI-H1651 | 0.495
EPLC-272H | 0.289
NCI-H2228 | 0.897
NCI-H1792 | 0.707
NCI-H1355 | 0.41
NCI-H3122 | 0.18
NCI-H1437 | 0.344
NCI-H1755 | 0.461

Same assay, conditions: first compound 2.53 µM

Cell Line | relative viability
NCI-H2405 | 0.539
HOP-62 | 0.499
HCC-44 | 0.993
SW 900 | 0.621
LU99A | 0.496
BEN | 0.497
HCC-78 | 0.507
NCI-H322M | 0.537
NCI-H2009 | 0.21
A-427 | 0.556
NCI-H441 | 0.204
NCI-H661 | 0.415
NCI-H1734 | 0.367
NCI-H460 | 0.153
NCI-H2347 | 0.43
SK-LU-1 | 0.4
NCI-H1395 | 0.655
201T | 0.391
NCI-H1915 | 0.565
HCC-827 | 0.551
LXF-289 | 0.58
NCI-H23 | 0.511
NCI-H647 | 0.419
CAL-12T | 0.508
NCI-H1651 | 0.523
NCI-H2228 | 0.689
NCI-H1792 | 0.44
NCI-H3122 | 0.275
NCI-H1437 | 0.282
NCI-H1755 | 0.46

Same assay, conditions: first compound 8 µM

Cell Line | relative viability
NCI-H2405 | 0.506
HOP-62 | 0.452
HCC-44 | 1.01
SW 900 | 0.513
LU99A | 0.372
BEN | 0.512
HARA | 0.221
HCC-78 | 0.457
NCI-H322M | 0.494
LCLC-97TM1 | 0.297
NCI-H2009 | 0.231
A-427 | 0.499
NCI-H441 | 0.188
NCI-H661 | 0.443
NCI-H1734 | 0.322
NCI-H460 | 0.105
NCI-H2347 | 0.438
SK-LU-1 | 0.378
NCI-H1395 | 0.567
201T | 0.399
NCI-H1915 | 0.528
HCC-827 | 0.535
LXF-289 | 0.619
NCI-H23 | 0.499
NCI-H647 | 0.42
CAL-12T | 0.324
NCI-H1651 | 0.523
EPLC-272H | 0.336
NCI-H2228 | 0.575
NCI-H1792 | 0.544
